Results from patent USRE39591E1, “6-O-substituted ketolides having antibacterial activity” (Abbott Laboratories, priority 1996, dated 2007).
≈ marks a conversion by molar mass, not a printed value.

Tested on: up to 32 different microorganisms
Assay: in vitro antibacterial activity (MIC), agar dilution on Brain Heart Infusion (BHI) agar with Steers replicator
Assay type: cell-based
Details: unit assumed
Method: Representative compounds of the present invention were assayed in vitro for antibacterial activity as follows: Twelve petri dishes containing successive aqueous dilutions of the test compound mixed with 10 mL of sterilized Brain Heart Infusion (BHI) agar (Difco 0148-01-5) were prepared. Each plate was inoculated with 1:100 (or 1:10 for slow-growing strains, such as Micrococcus and Streptococcus) dilutions of up to 32 different microorganisms, using a Steers replicator block. The inoculated plates were incubated at 35°-37° C. for 20 to 24 hours. In addition, a control plate, using BHI agar containing no test compound, was prepared and incubated at the beginning and end of each test.
An additional plate containing a compound having known susceptibility patterns for the organisms being tested and belonging to the same antibiotic class as the test compound was also prepared and incubated as a further control, as well as to provide test-to-test comparability. Erythromycin A was used for this purpose.
After incubation, each plate was visually inspected. The minimum inhibitory concentration (MIC) was defined as the lowest concentration of drug yielding no growth, a slight haze, or sparsely isolated colonies on the inoculum spot as compared to the growth control.

[1] = Candida albicans CCH 442 (code TT)
[2] = Enterococcus faecism ATCC 8043 (code II)
[3] = Escherichia coli DC-2 (code SS)
[4] = Escherichia coli JUHL (code QQ)
[5] = Haemophilis influenzae DILL AMP R (code WW)
[6] = Micrococcus luteus ATCC 4698 (code PP)
[7] = Micrococcus luteus ATCC 9341 (code OO)
[8] = Mycobacterium smegmatis ATCC 114 (code UU)
[9] = Nocardia Asteroides ATCC9970 (code VV)
[10] = Staphylococcus aureus 1775 (code GG)
[11] = Staphylococcus aureus A5177 (code BB)
[12] = Staphylococcus aureus A-5278 (code CC)
[13] = Staphylococcus aureus ATCC 6538P (code AA)
[14] = Staphylococcus aureus CMX 553 (code FF)
[15] = Staphylococcus aureus CMX 642A (code DD)
[16] = Staphylococcus aureus NCTC10649M (code EE)
[17] = Staphylococcus epidermidis 3519 (code HH)
[18] = Streptococcus Pneumonia 5649 (code ZZA)
[19] = Streptococcus Pneumonia 5979 (code ZZ)
[20] = Streptococcus Pneumonia ATCC6303 (code XX)
[21] = Streptococcus Pneumonia GYR 1171 (code YY)
[22] = Streptococcus agalactiae CMX 508 (code KK)
[23] = Streptococcus bovis A-5169 (code JJ)
[24] = Streptococcus pyogenes 930 (code MM)
[25] = Streptococcus pyogenes PIU 2548 (code NN)
[26] = Streptococcus pyogenes EES61 (code LL)

CC[C@H]1OC(=O)[C@H](C)C(=O)[C@H](C)[C@@H](O[C@@H]2O[C@H](C)C[C@H](N(C)C)[C@H]2O)[C@@](C)(OCC=NOCc2ccc3ncccc3c2)C[C@@H](C)C(=O)[C@H](C)[C@H]2NC(=O)O[C@@]21C [Example 234, Compound of Formula (IX): L is CO, T is NH, R is —CH2CH═NOCH2(6-quinolyl)]
MIC (organism code AA): 0.1 mg/L | MIC (organism code BB): 0.1 mg/L | MIC (organism code CC): > 100 mg/L | MIC (organism code DD): 0.2 mg/L | MIC (organism code EE): 0.2 mg/L | MIC (organism code FF): 0.1 mg/L | MIC (organism code GG): > 100 mg/L | MIC (organism code HH): 0.1 mg/L | MIC (organism code II): 0.05 mg/L | MIC (organism code JJ): ≤ 0.005 mg/L | MIC (organism code KK): 0.05 mg/L | MIC (organism code LL): 0.01 mg/L | MIC (organism code MM): 100 mg/L | MIC (organism code NN): 0.2 mg/L | MIC (organism code OO): 0.01 mg/L | MIC (organism code PP): 0.1 mg/L | MIC (organism code QQ): 50 mg/L | MIC (organism code RR): 0.39 mg/L | MIC (organism code SS): 50 mg/L | MIC (organism code TT): > 100 mg/L | MIC (organism code UU): 0.78 mg/L | MIC (organism code VV): 0.1 mg/L | MIC (organism code WW): 2 mg/L | MIC (organism code XX): 0.03 mg/L | MIC (organism code YY): 0.03 mg/L | MIC (organism code ZZ): > 128 mg/L | MIC (organism code ZZA): 0.25 mg/L

C=CCOC1(C)CC(C)C(=O)C(C)C(O)C(C)(O)C(CC)OC(=O)C(C)C(=O)C(C)C1OC1OC(C)CC(N(C)C)C1O (centres unmarked) [Example 1, Compound of Formula (VIII): X is O, R is allyl]
MIC [1]: > 100 mg/L | MIC [2]: 12.5 mg/L | MIC [3]: > 100 mg/L | MIC [4]: > 100 mg/L | MIC (Escherichia coli SS (code RR)): 12.5 mg/L | MIC [5]: > 128 mg/L | MIC [6]: 6.2 mg/L | MIC [7]: 3.1 mg/L | MIC [8]: > 100 mg/L | MIC [9]: 6.3 mg/L | MIC [10]: > 100 mg/L | MIC [11]: 50 mg/L | MIC [12]: > 100 mg/L | MIC [13]: 12.5 mg/L | MIC [14]: 25 mg/L | MIC [15]: 50 mg/L | MIC [16]: 6.2 mg/L | MIC [17]: 50 mg/L | MIC [18]: 8 mg/L | MIC [19]: > 128 mg/L | MIC [20]: 4 mg/L | MIC [21]: 4 mg/L | MIC [22]: 6.2 mg/L | MIC [23]: 25 mg/L | MIC [24]: > 100 mg/L | MIC [25]: 12.5 mg/L

CCC1OC(=O)C(C)C(=O)C(C)C(OC2OC(C)CC(N(C)C)C2O)C(C)(OCC=Cc2cc(Cl)cc(Cl)c2)CC(C)C(=O)C(C)C2NC(=O)OC12C (centres unmarked) [Example 284, Compound of Formula (IX): L is CO, T is NH2, R is —CH2CH═CH-(3,5-dichlorophenyl)]
MIC (organism code AA): 0.2 mg/L | MIC (organism code BB): 0.2 mg/L | MIC (organism code CC): 50 mg/L | MIC (organism code DD): 0.2 mg/L | MIC (organism code EE): 0.2 mg/L | MIC (organism code FF): 0.2 mg/L | MIC (organism code GG): 50 mg/L | MIC (organism code HH): 0.2 mg/L | MIC (organism code II): 0.05 mg/L | MIC (organism code JJ): 0.02 mg/L | MIC (organism code KK): 0.02 mg/L | MIC (organism code LL): ≤ 0.005 mg/L | MIC (organism code MM): 25 mg/L | MIC (organism code NN): 0.2 mg/L | MIC (organism code OO): 0.05 mg/L | MIC (organism code PP): 0.2 mg/L | MIC (organism code QQ): > 100 mg/L | MIC (organism code RR): 1.56 mg/L | MIC (organism code SS): > 100 mg/L | MIC (organism code TT): 50 mg/L | MIC (organism code UU): 0.2 mg/L | MIC (organism code VV): 0.78 mg/L | MIC (organism code WW): 4 mg/L | MIC (organism code XX): 0.03 mg/L | MIC (organism code YY): 0.03 mg/L | MIC (organism code ZZ): 32 mg/L | MIC (organism code ZZA): 0.25 mg/L

CC[C@H]1OC(=O)[C@H](C)C(=O)[C@H](C)[C@@H](O[C@@H]2O[C@H](C)C[C@H](N(C)C)[C@H]2O)[C@@](C)(OCC=Cc2ccc(F)cc2)C[C@@H](C)C(=O)[C@H](C)[C@@H](O)[C@]1(C)O [Example 174, Compound of Formula (VIII): X is O, R is CH2—CH═CH-(4-fluorophenyl)]
MIC [1]: > 100 mg/L | MIC [2]: 3.1 mg/L | MIC [3]: > 100 mg/L | MIC [4]: > 100 mg/L | MIC (Escherichia coli SS (code RR)): 12.5 mg/L | MIC [5]: 128 mg/L | MIC [6]: 0.78 mg/L | MIC [7]: 0.39 mg/L | MIC [8]: 3.1 mg/L | MIC [9]: 0.78 mg/L | MIC [10]: > 100 mg/L | MIC [11]: 3.1 mg/L | MIC [12]: > 100 mg/L | MIC [13]: 3.1 mg/L | MIC [14]: 3.1 mg/L | MIC [15]: 3.1 mg/L | MIC [16]: 3.1 mg/L | MIC [17]: 3.1 mg/L | MIC [18]: 2 mg/L | MIC [19]: > 128 mg/L | MIC [20]: 1 mg/L | MIC [21]: 1 mg/L | MIC [22]: 0.39 mg/L | MIC [23]: 0.2 mg/L | MIC [24]: > 100 mg/L | MIC [26]: 0.39 mg/L | MIC [25]: 1.56 mg/L

CC[C@H]1OC(=O)[C@H](C)C(=O)[C@H](C)[C@@H](O[C@@H]2O[C@H](C)C[C@H](N(C)C)[C@H]2O)[C@@](C)(OCCCc2ccccc2)C[C@@H](C)C(=O)[C@H](C)[C@H]2OC(=O)O[C@@]21C [Example 73, Compound of Formula (IX): L is CO, T is O, R is —CH2CH2CH2-Phenyl]
MIC [1]: > 100 mg/L | MIC [2]: 0.1 mg/L | MIC [3]: > 100 mg/L | MIC [4]: > 100 mg/L | MIC (Escherichia coli SS (code RR)): 3.1 mg/L | MIC [5]: 16 mg/L | MIC [6]: 0.2 mg/L | MIC [7]: 0.1 mg/L | MIC [8]: 0.78 mg/L | MIC [9]: 0.39 mg/L | MIC [10]: 100 mg/L | MIC [11]: 0.39 mg/L | MIC [12]: > 100 mg/L | MIC [13]: 0.39 mg/L | MIC [14]: 0.39 mg/L | MIC [15]: 0.39 mg/L | MIC [16]: 0.39 mg/L | MIC [17]: 0.39 mg/L | MIC [18]: 1 mg/L | MIC [19]: 64 mg/L | MIC [20]: 0.125 mg/L | MIC [21]: 0.125 mg/L | MIC [22]: 0.05 mg/L | MIC [23]: 0.05 mg/L | MIC [24]: 12.5 mg/L | MIC [26]: 0.05 mg/L | MIC [25]: 0.2 mg/L

CC[C@H]1OC(=O)[C@H](C)C(=O)[C@H](C)[C@@H](O[C@@H]2O[C@H](C)C[C@H](N(C)C)[C@H]2O)[C@@](C)(OCCNCc2ccccc2)C[C@@H](C)C(=O)[C@H](C)[C@@H](O)[C@]1(C)O [Example 9, Compound of Formula (VIII): X is O, R is —CH2CH2NHCH2-Phenyl]
MIC [1]: > 100 mg/L | MIC [2]: 0.78 mg/L | MIC [3]: 25 mg/L | MIC [4]: 25 mg/L | MIC (Escherichia coli SS (code RR)): 0.39 mg/L | MIC [5]: 16 mg/L | MIC [6]: 0.78 mg/L | MIC [7]: 0.2 mg/L | MIC [8]: 6.2 mg/L | MIC [9]: 0.2 mg/L | MIC [10]: > 100 mg/L | MIC [11]: 1.56 mg/L | MIC [12]: > 100 mg/L | MIC [13]: 3.1 mg/L | MIC [14]: 3.1 mg/L | MIC [15]: 6.2 mg/L | MIC [16]: 0.78 mg/L | MIC [17]: 3.1 mg/L | MIC [18]: 4 mg/L | MIC [19]: > 64 mg/L | MIC [20]: 0.25 mg/L | MIC [21]: 0.25 mg/L | MIC [22]: 0.39 mg/L | MIC [23]: 0.05 mg/L | MIC [24]: > 100 mg/L | MIC [26]: 0.39 mg/L | MIC [25]: 0.78 mg/L

CCC1OC(=O)C(C)C(=O)C(C)C(OC2OC(C)CC(N(C)C)C2O)C(C)(OCC=Cc2ccc3ccccc3c2)CC(C)C(=O)C(C)C2NC(=O)OC12C (centres unmarked) [Example 186, R is —CH2CH═CH-(2-naphthyl)]
MIC [1]: > 100 mg/L | MIC [2]: 0.05 mg/L (≈ 0.0654 µM) | MIC [3]: > 100 mg/L | MIC [4]: > 100 mg/L | MIC (Escherichia coli SS (code RR)): 0.39 mg/L (≈ 0.51 µM) | MIC [5]: 16 mg/L (≈ 20.9 µM) | MIC [6]: 0.1 mg/L (≈ 0.131 µM) | MIC [7]: < 0.005 mg/L | MIC [8]: 0.2 mg/L (≈ 0.261 µM) | MIC [9]: 0.1 mg/L (≈ 0.131 µM) | MIC [10]: > 100 mg/L | MIC [11]: 0.01 mg/L (≈ 0.0131 µM) | MIC [12]: > 100 mg/L | MIC [13]: 0.1 mg/L (≈ 0.131 µM) | MIC [14]: 0.01 mg/L (≈ 0.0131 µM) | MIC [15]: 0.1 mg/L (≈ 0.131 µM) | MIC [16]: 0.1 mg/L (≈ 0.131 µM) | MIC [17]: 0.1 mg/L (≈ 0.131 µM) | MIC [18]: 1 mg/L (≈ 1.31 µM) | MIC [19]: > 128 mg/L | MIC [20]: 0.03 mg/L (≈ 0.0392 µM) | MIC [21]: 0.015 mg/L (≈ 0.0196 µM) | MIC [22]: 0.01 mg/L (≈ 0.0131 µM) | MIC [23]: ≤ 0.005 mg/L | MIC [24]: 3.1 mg/L (≈ 4.05 µM) | MIC [26]: 0.01 mg/L (≈ 0.0131 µM) | MIC [25]: 0.1 mg/L (≈ 0.131 µM)
